Measured values reported in patent US20250145561A1, “4-SUBSTITUTED-PHENYL ACETAMIDES AND ARYLUREAS AS AGONISTS FOR THE ORPHAN RECEPTOR GPR88” (RESEARCH TRIANGLE INSTITUTE, priority 2022, published 2025).

Target: T1, GPR88 (Homo sapiens, UniProt Q9GZN0)
T1 construct: expressed in transfected cells
Test: Lance Ultra TR-FRET cAMP assay using stable PPLS-HA-GPR88 CHO cells
Format: cell-based
Details: for Emax: CHO; for EC50 / cAMP pEC50: stable PPLS-HA-GPR88 CHO cells; for EC50: value in parentheses beside pEC50; for cAMP pEC50: 300 nM forskolin, mean ± standard error of at least three independent experiments in duplicate
Method: The compounds of the present disclosure offer potent agonism to the orphan receptor GPR88. As such, the compounds of the present disclosure provide therapeutic potential for the treatment of striatal associated disorders such as Parkinson's disease, schizophrenia, and alcohol addiction. All compounds were evaluated for the GPR88 agonist activity in the inventors' previously established in vitro GPR88 Lance TR-FRET cAMP assay. See, supra, Jin et al., 2018, Rahman et al., 2020, and Rahman et al., 2021. As will be described, the TR-FRET signal was converted to fmol cAMP by interpolating from the standard cAMP curve. Fmol cAMP was plotted against the log of compound concentration and data were fit to a three-parameter logistic curve to generate maximum response (Emax) and EC50 values.
Lance™ Ultra cAMP assay using stable PPLS-HA-GPR88 CHO cells. All cAMP assays were performed using the inventors' previously published methods. […] ACS Chemical Neuroscience 2016, 7, 1418-1432, which is incorporated by reference herein with regard to such teaching. Stimulation buffer containing 1× Hank's Balanced Salt Solution (HBSS), 5 mM HEPES, 0.1% BSA stabilizer, and 0.5 mM final IBMX was prepared and titrated to pH 7.4 at room temperature. Serial dilutions of the test compounds (5 μL) and 300 nM forskolin (5 μL), both prepared at 4× the desired final concentration in 2% DMSO/stimulation buffer, were added to a 96-well white ½ area microplate (PerkinElmer). A cAMP standard curve was prepared at 4× the desired final concentration in stimulation buffer and 5 μL was added to the assay plate. Stable PPLS-HA-GPR88 CHO cells were lifted with versene and spun at 270 g for 10 minutes. The cell pellet was resuspended in stimulation buffer and 4,000 cells (10 μL) were added to each well except wells containing the cAMP standard curve. After incubating for 30 min at room temperature, Eu-cAMP tracer and uLIGHT-anti-cAMPworking solutions were added per the manufacturer's instructions. After incubation at room temperature for 1 hour, the TR-FRET signal (ex 337 nm) was read on a CLARIOstar multimode plate reader (BMG Biotech, Cary, NC).
Data Analysis. The TR-FRET signal (665 nm) was converted to fmol cAMP by interpolating from the standard cAMP curve. Fmol cAMP was plotted against the log of compound concentration and data were fit to a three-parameter logistic curve to generate EC50 values (Prism, version 6.0, GraphPad Software, Inc., San Diego, CA).

T1 sequence (Q9GZN0 whole entry): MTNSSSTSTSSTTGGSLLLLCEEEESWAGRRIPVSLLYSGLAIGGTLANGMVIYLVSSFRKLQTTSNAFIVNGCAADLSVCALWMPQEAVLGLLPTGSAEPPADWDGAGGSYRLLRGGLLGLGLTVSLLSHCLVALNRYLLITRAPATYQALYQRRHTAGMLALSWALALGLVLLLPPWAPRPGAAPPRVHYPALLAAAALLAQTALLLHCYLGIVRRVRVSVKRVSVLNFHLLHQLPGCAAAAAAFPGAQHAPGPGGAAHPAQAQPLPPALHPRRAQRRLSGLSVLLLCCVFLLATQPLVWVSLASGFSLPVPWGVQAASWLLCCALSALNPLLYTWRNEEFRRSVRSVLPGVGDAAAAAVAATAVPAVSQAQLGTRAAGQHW

SMILES: C[C@@H](NC(=O)[C@H](CO)c1ccc(-c2ccc(OC3CCC3)cc2)cc1)c1ccccc1 [Compound 35, (2S)-2-{4′-Cyclobutoxy-[1,1′-biphenyl]-4-yl}-3-hydroxy-N-[(1 R)-1-phenylethyl]propenamide]
- Emax: 90 ± 10%
- EC50: 224 nM

SMILES: CCCC#Cc1ccc([C@@H](CO)C(=O)N[C@H](C)c2ccccc2)cc1 [Compound 36, (2S)-3-Hydroxy-2-[4-(pent-1-yn-1-yl)phenyl]-N-[(1 R)-1-phenylethyl]propenamide]
- Emax: 92 ± 7%
- EC50: 204 nM

SMILES: CC(C)C#Cc1ccc([C@@H](CO)C(=O)N[C@H](C)c2ccccc2)cc1 [Compound 37, (2S)-3-Hydroxy-2-[4-(3-methylbut-1-yn-1-yl)phenyl]-N-[(1 R)-1-phenylethyl]propenamide]
- Emax: 102 ± 2%
- EC50: 479 nM

SMILES: CCCc1ccc(-c2ccc(N(C[C@@H](N)[C@@H](C)CC)C(=O)Nc3ccccc3)cc2)cc1 [Compound 38, 3-[(2S,3S)-2-Amino-3-methylpentyl]-1-phenyl-3-{4′-propyl-[1,1′-biphenyl]-4-yl}urea]
- cAMP pEC50: Inactive

SMILES: CCCc1ccc(-c2ccc(N(C[C@@H](N)[C@@H](C)CC)C(=O)N(C)c3ccccc3)cc2)cc1 [Compound 39, 3-[(2S,3S)-2-Amino-3-methylpentyl]-1-methyl-1-phenyl-3-{4′-propyl-[1,1′-biphenyl]-4-yi}urea]
- Emax: 97 ± 12%
- EC50: 2820 nM

SMILES: CCCc1ccc(-c2ccc(N(C[C@@H](N)[C@@H](C)CC)C(=O)NCc3ccccc3)cc2)cc1 [Compound 40, 3-[(2S,3S)-2-Amino-3-methylpentyl]-1-benzyl-3-{4′-propyl-[1,1′-biphenyl]-4-yl}urea]
- Emax: 97 ± 4%
- EC50: 2000 nM

SMILES: CCCc1ccc(-c2ccc(N(C[C@@H](N)[C@@H](C)CC)C(=O)N[C@H](C)c3ccccc3)cc2)cc1 [Compound 41, 3-[(2S,3S)-2-Amino-3-methylpentyl]-1-[(1 R)-1-phenylethyl]-3-{4′-propyl-[1,1′-biphenyl]-4-yl}urea]
- cAMP pEC50: Inactive

SMILES: CCCc1ccc(-c2ccc(N(C[C@@H](N)[C@@H](C)CC)C(=O)N[C@@H](C)c3ccccc3)cc2)cc1 [Compound 42, 3-[(2S,3S)-2-Amino-3-methylpentyl]-1-[(1 S)-1-phenylethyl]-3-{4′-propyl-[1,1′-biphenyl]-4-yl}urea]
- Emax: 106 ± 10%
- EC50: 1020 nM

SMILES: CCCCCCc1ccc(N(C[C@@H](N)[C@@H](C)CC)C(=O)N[C@@H](C)c2ccccc2)cc1 [Compound 43, 3-[(2S,3S)-2-Amino-3-methylpentyl]-3-(4-hexylphenyl)-1-[(1 S)-1-phenylethyl]urea]
- Emax: 108 ± 4%
- EC50: 1380 nM

SMILES: CCCc1ccc(-c2ccc(N(C[C@@H](N)[C@@H](C)CC)C(=O)N[C@@H]3C[C@H]3c3ccccc3)cc2)cc1 [Compound 44, 1-[(2S,3S)-2-Amino-3-methylpentyl]-3-[(1 R,2S)-2-phenylcyclopropyl]-1-(4′-propyl-[1,1′-biphenyl]-4-yl}urea]
- cAMP pEC50: Inactive

SMILES: CCCc1ccc(-c2ccc(N(C[C@@H](N)[C@@H](C)CC)C(=O)N[C@H]3C[C@@H]3c3ccccc3)cc2)cc1 [Compound 45, 1-[(2S,3S)-2-Amino-3-methylpentyl]-3-[(1 S,2R)-2-phenylcyclopropyl]-1-(4′-propyl-[1,1′-biphenyl]-4-yl}urea]
- Emax: 110 ± 5%
- EC50: 2290 nM

SMILES: CCCc1ccc(-c2ccc(N(C[C@@H](N)[C@@H](C)CC)C(=O)NC3(c4ccccc4)CC3)cc2)cc1 [Compound 46, 1-[(2S,3S)-2-Amino-3-methylpentyl]-3-(1-phenylcyclopropyl)-1-{4′-propyl-[1,1′-biphenyl]-4-yl}urea]
- Emax: 91 ± 4%
- EC50: 1860 nM

SMILES: CCCc1ccc(-c2ccc(N(C[C@@H](N)[C@@H](C)CC)C(=O)N[C@@H](CC)c3ccccc3)cc2)cc1 [Compound 47, 3-[(2S,3S)-2-Amino-3-methylpentyl]-1-[(1 S)-1-phenylpropyl]-3-{4′-propyl-[1,1′-biphenyl]-4-yl}urea]
- Emax: 103 ± 4%
- EC50: 2000 nM

SMILES: CCCc1ccc(-c2ccc(N(C[C@@H](N)[C@@H](C)CC)C(=O)N[C@@H](COC)c3ccccc3)cc2)cc1 [Compound 48, 3-[(2S,3S)-2-Amino-3-methylpentyl]-1-[(1 R)-2-methoxy-1-phenylethyl]-3-{4′-propyl-[1,1′-biphenyl]-4-yl}urea]
- Emax: 110 ± 5%
- EC50: 1550 nM

SMILES: CCCc1ccc(-c2ccc(N(C[C@@H](N)[C@@H](C)CC)C(=O)N[C@@H](C)c3ccco3)cc2)cc1 [Compound 49, 1-[(2S,3S)-2-Amino-3-methylpentyl]-3-[(1 S)-1-(furan-2-yl)ethyl]-1-{4′-propyl-[1,1′-biphenyl]-4-yl}urea]
- Emax: 115 ± 5%
- EC50: 2570 nM

SMILES: CCCc1ccc(-c2ccc(N(C[C@@H](N)CC(C)C)C(=O)N[C@@H](C)c3ccccc3)cc2)cc1 [Compound 50, 3-[(2S)-2-Amino-4-methylpentyl]-1-[(1 S)-1-phenylethyl]-3-{4′-propyl-[1,1′-biphenyl]-4-yl}urea]
- Emax: 112 ± 8%
- EC50: 1200 nM

SMILES: CCCc1ccc(-c2ccc(N(C[C@H](N)CC(C)C)C(=O)N[C@@H](C)c3ccccc3)cc2)cc1 [Compound 51, 3-[(2R)-2-Amino-4-methylpentyl]-1-[(1 S)-1-phenylethyl]-3-{4′-propyl-[1,1′-biphenyl]-4-yl}urea]
- Emax: 129 ± 4%
- EC50: 1410 nM

SMILES: CCCc1ccc(-c2ccc(N(C[C@H](C)N)C(=O)N[C@@H](C)c3ccccc3)cc2)cc1 [Compound 52, 3-[(2S)-2-Aminopropyl]-1-[(1 S)-1-phenylethyl]-3-{4′-propyl-[1,1′-biphenyl]-4-yl}urea]
- Emax: 107 ± 3%
- EC50: 1290 nM

SMILES: CCCc1ccc(-c2ccc(N(C[C@@H]3CCCN3)C(=O)N[C@@H](C)c3ccccc3)cc2)cc1 [Compound 53, 1-[(1 S)-1-Phenylethyl]-3-{4′-propyl-[1,1′-biphenyl]-4-yl}-3-{[(2S)-pyrrolidin-2-yl]methyl}urea]
- Emax: 106 ± 3%
- EC50: 1740 nM

SMILES: CCCc1ccc(-c2ccc(N(C[C@@H](N)[C@@H](C)OC)C(=O)N[C@@H](C)c3ccccc3)cc2)cc1 [Compound 54, 3-[(2R,3R)-2-Amino-3-methoxybutyl]-1-[(1 S)-1-phenylethyl]-3-{4′-propyl-[1,1′-biphenyl]-4-yl}urea]
- Emax: 106 ± 3%
- EC50: 324 nM

SMILES: CO[C@H](C)[C@H](N)CN(C(=O)N[C@@H](C)c1ccccc1)c1ccc(-c2ccc(C)cc2)cc1 [Compound 55, 3-[(2R,3R)-2-Amino-3-methoxybutyl]-1-[(1 S)-1-phenylethyl]-3-{4′-methyl-[1,1′-biphenyl]-4-yl}urea]
- Emax: 114 ± 6%
- EC50: 457 nM

SMILES: CCc1ccc(-c2ccc(N(C[C@@H](N)[C@@H](C)OC)C(=O)N[C@@H](C)c3ccccc3)cc2)cc1 [Compound 56, 3-[(2R,3R)-2-Amino-3-methoxybutyl]-1-[(1 S)-1-phenylethyl]-3-{4′-ethyl-[1,1′-biphenyl]-4-yl}urea]
- Emax: 116 ± 9%
- EC50: 331 nM

SMILES: COc1ccc(-c2ccc(N(C[C@@H](N)[C@@H](C)OC)C(=O)N[C@@H](C)c3ccccc3)cc2)cc1 [Compound 57, 3-[(2R,3R)-2-Amino-3-methoxybutyl]-1-[(1 S)-1-phenylethyl]-3-{4′-methoxy-[1,1′-biphenyl]-4-yl}urea]
- Emax: 101 ± 3%
- EC50: 891 nM

SMILES: CCOc1ccc(-c2ccc(N(C[C@@H](N)[C@@H](C)OC)C(=O)N[C@@H](C)c3ccccc3)cc2)cc1 [Compound 58, 3-[(2R,3R)-2-Amino-3-methoxybutyl]-1-[(1 S)-1-phenylethyl]-3-{4′-ethoxy-[1,1′-biphenyl]-4-yl}urea]
- Emax: 102 ± 2%
- EC50: 676 nM

SMILES: CO[C@H](C)[C@H](N)CN(C(=O)N[C@@H](C)c1ccccc1)c1ccc(-c2ccc(OC(C)C)cc2)cc1 [Compound 59, 3-[(2R,3R)-2-Amino-3-methoxybutyl]-1-[(1 S)-1-phenylethyl]-3-[4′-(propan-2-yloxy)-[1,1′-biphenyl]-4-yl]urea]
- Emax: 100 ± 4%
- EC50: 407 nM

SMILES: CO[C@H](C)[C@H](N)CN(C(=O)N[C@@H](C)c1ccccc1)c1ccc(C#CCC(C)C)cc1 [Compound 60, 3-[(2R,3R)-2-amino-3-methoxybutyl]-3-[4-(4-methylpent-1-yn-1-yl)phenyl]-1-[(1 S)-1-phenylethyl]urea]
- Emax: 103 ± 4%
- EC50: 363 nM
